Measurements as given in patent publication US20080269184A1, “Niosome Having Metal Porphyrin Complex Embedded Therein, Process For Producing The Same And Drug With The Use Thereof” (priority 2004, published 2008).
Read-outs that look alike come from different tables or passages of the source.

Experiments:
[1] = SOD activity by the cytochrome c method (xanthine/xanthine oxidase); format: biochemical; conditions: pH 7.8, 25° C., metalloporphyrin concentration
Protocol: The SOD activity (i.e. O2— extinction activity) of Por-embedding niosome was evaluated according to the cytochrome c method ((1) J. M. Mccord and I. Fridovich, J. Biol. Chem., 244, 6049 (1969) and (2) J. Butler, W. H. Kopenol, E. Margoliash, J. Biol. Chem., 257, 10747 (1982)). A specific procedure was as follows: Five or more Por-embedding niosome solutions (A solutions) with different metalloporphyrin concentrations ranging from 0 to 1,000 μM were prepared. […] The UV-vis was also measured for a solution without addition of Por-embedding niosome (blank) in the same manner.
The ferrocytochrome c formation rates in a solution not containing Por-embedding niosome (vo) and a solution containing Por-embedding niosome (vi) were determined from the relationship between the time and the absorbance at 550 nm in the UV-vis measurement over time. The inhibition coefficient (IC) was calculated according to the following formula to determine the concentration of metalloporphyrin when IC=50% (IC50) from the relationship between the concentration of metalloporphyrin complex and IC. […] The SOD activity of MnT4MPyP and the like was evaluated in the same manner for reference. […]

[2] = SOD activity by the stopped flow method (potassium superoxide); format: biochemical; conditions: HEPES buffer pH 8.1, 36° C.
Protocol: The SOD activity (i.e. ° 2-extinction activity) of Por-embedding niosome was evaluated according to the stopped flow method of Riley et al. (D. P. Riley, W. L. Rivers, and R. H. Weiss, Anal. Biochem., 196, 344 (1991)). A specific procedure was as follows: 60 mM HEPES/HEPES Na buffer solutions (8.1 pH) containing Por-embedding niosome at different concentrations were rapidly mixed with a dimethyl sulfoxide solution of potassium superoxide, which is an O2^−. generation source, at 36° C. to measure over time an attenuation of absorbance at 245 nm due to O2^−. (a decay curve of O2^−. extinction reaction). The relationship of ln (absorbance) and time was determined from the decay curve. The apparent rate constant was calculated from the inclination of the resulting relationship. The rate constant (kcat) of the O2^−. extinction reaction was then determined from the inclination of the relationship of the metalloporphyrin complex concentration and the apparent rate constant.

[3] = value disclosed by Fridovich et al., J. Biol. Chem., 273, 24251 (1998); read-out: IC50 (SOD activity); cited from earlier work
[4] = value disclosed by Ohse, Kawakami et al., J. Inorg. Biochem., 85, 201 (2001); cited from earlier work

Row | IC50 [1] [nM] | Compound | kcat (rate constant of the O2−. extinction reaction) [2] [M⁻¹ s⁻¹] | IC50 [3] [nM] | kcat (rate constant of the O2−. extinction reaction) [4] [M⁻¹ s⁻¹]
1 | 180 | manganese[5,10,15,20-tetrakis(2-methylpyridyl)porphyrin] [MnT2MPyP] | 2.1e+07 | – | –
2 | 430 | C[n+]1ccc(-c2c3nc(c(-c4cc[n+](C)cc4)c4ccc([n-]4)c(-c4cc[n+](C)cc4)c4nc(c(-c5cc[n+](C)cc5)c5ccc2[n-]5)C=C4)C=C3)cc1.[Mn+2] [MnT4MPyP, Manganese[5,10,15,20-tetrakis(4-methylpyridyl)porphyrin]] | 1.4e+07 | 700 | 2.2e+07
